From patent publication US20250163016A1, “PYRIDINE DERIVATIVE, PREPARATION METHOD THEREFOR AND USE THEREOF” (CHENGDU EASTON BIOPHARMACEUTICALS CO., LTD., priority 2022, published 2025) come the findings set out here.

Bounds are passed on as bounds.

Data set [1] in a line: Pharmacokinetics of oral and intravenous administration of rats. Format: in vivo. To be noted: male, rat, plasma, SD rats; for bioavailability: oral, p.o. 5.0 mg/kg vs i.v. 5.0 mg/kg, read-out: F (bioavailability). The protocol:
With SD rats as tested animals, blood drug concentrations of the compounds of the present application in plasma at different moments after oral administration and intravenous administration to the rats were determined using an LC-MS/MS method, pharmacokinetic parameters and bioavailabilities of the compounds of the present application in the rats were obtained, and pharmacokinetic characteristics of the compounds were studied.
• SD rats, male, weight 180-220 g, 3 rats per group. The animals were fed in an animal house after being purchased, an adaptation period was at least 3 days, and they were used for tests after passing quarantine.
3.2. Solvent: p.o.: 0.5% Sodium Methylcellulose Aqueous Solution
• i.v.: 5% DMSO+10% Solutol+85% Saline
According to Table 6, each group of rats was given the corresponding tested drugs or positive drugs by gavage, before administration, and 5 min, 15 min, 30 min, 1 h, 2 h, 4 h, 6 h, 8 h, 10 h and 24 h after administration, a fixed volume of blood was collected through eye sockets and placed in an EDTA-K2 anticoagulant tube, centrifuging was carried out at 8000 rpm for 1 min to separate plasma into a centrifuge tube, and the plasma was frozen in a −20° C. refrigerator.
(§1) The plasma at each time point stored at −20° C. was taken out, then acetonitrile was added, after whirling at 1500 revolutions for 2 min, centrifuging was carried out for 15 min (3500 r/min), and a fixed volume of solution supernatant was taken for LC-MS/MS analysis.
(§2) Non-compartment model fitting was carried out on pharmacokinetic behaviors of the tested compounds, and DAS3.31 software was adopted to calculate main pharmacokinetic parameters (T1/2, Tmax, Cmax, AUClast, etc.).

Data set [2] can be described thus: Pharmacokinetics of oral administration of mice under different solvent conditions. It counts as in vivo. As to conditions: male, Balb/c, mouse, plasma, 5 mg/kg, p.o. 5.0 mg/kg. The protocol:
With Balb/c mice as tested animals, blood drug concentrations of the compounds of the present application in plasma at different moments after administration of the mice under different solvent conditions were determined using an LC-MS/MS method. Pharmacokinetic parameters of the compounds of the present application in the mice under the different solvent conditions were obtained, and pharmacokinetic characteristics of the compounds were studied.
• Balb/c mice, male, weight 18-22 g, 6 mice per group. The animals were fed in an animal house after being purchased, an adaptation period was at least 3 days, and they were used for tests after passing quarantine.
According to Table 8, each group of mice was given the corresponding tested drugs or positive drugs by gavage, before administration, and 15 min, 30 min, 1 h, 2 h, 4 h, 6 h, 8 h, 10 h and 24 h after administration, a fixed volume of blood was collected through eye sockets and placed in an EDTA-K2 anticoagulant tube, centrifuging was carried out at 8000 rpm for 1 min to separate plasma into a centrifuge tube, and the plasma was frozen in a −20° C. refrigerator.
as §1, §2

In data set [3] the target is T1, hERG ion channel (Homo sapiens, UniProt Q12809).
T1 construct: expressed in transfected cells; host or cells: HEK293
T1 sequence (Q12809 whole entry): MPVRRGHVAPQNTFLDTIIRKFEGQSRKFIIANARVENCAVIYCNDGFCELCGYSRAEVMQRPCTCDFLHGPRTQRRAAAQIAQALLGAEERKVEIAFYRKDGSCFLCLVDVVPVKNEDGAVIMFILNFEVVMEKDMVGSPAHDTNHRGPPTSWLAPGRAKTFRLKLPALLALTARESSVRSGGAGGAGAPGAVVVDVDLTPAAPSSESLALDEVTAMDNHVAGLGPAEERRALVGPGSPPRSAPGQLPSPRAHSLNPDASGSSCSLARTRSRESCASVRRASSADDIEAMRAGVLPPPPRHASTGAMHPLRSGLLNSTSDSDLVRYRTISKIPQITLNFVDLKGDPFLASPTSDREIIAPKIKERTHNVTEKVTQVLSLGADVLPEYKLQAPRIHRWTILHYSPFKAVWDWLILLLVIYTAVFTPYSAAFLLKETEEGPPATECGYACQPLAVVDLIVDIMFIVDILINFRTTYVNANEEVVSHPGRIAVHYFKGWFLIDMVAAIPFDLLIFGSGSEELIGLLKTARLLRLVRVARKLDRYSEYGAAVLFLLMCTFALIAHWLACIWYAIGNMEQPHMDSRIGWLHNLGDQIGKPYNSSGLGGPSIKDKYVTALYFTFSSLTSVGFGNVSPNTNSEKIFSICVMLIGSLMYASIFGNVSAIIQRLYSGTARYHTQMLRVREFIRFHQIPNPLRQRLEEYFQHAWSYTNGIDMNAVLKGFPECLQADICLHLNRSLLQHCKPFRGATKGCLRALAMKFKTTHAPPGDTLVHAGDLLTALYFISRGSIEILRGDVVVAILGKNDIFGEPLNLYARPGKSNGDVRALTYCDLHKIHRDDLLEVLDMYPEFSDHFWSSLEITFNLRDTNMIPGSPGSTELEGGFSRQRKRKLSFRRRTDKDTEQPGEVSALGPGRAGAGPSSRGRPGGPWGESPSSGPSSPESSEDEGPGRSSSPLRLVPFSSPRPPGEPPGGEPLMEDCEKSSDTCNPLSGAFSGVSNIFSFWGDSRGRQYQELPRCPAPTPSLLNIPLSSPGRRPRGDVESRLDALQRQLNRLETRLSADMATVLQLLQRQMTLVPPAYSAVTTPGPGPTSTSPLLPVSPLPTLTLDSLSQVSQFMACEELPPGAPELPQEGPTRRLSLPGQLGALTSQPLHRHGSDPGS
The data set can be described thus: In-vitro hERG inhibitory activity (whole cell patch clamp, HEK293 cells). Format: cell-based. As to conditions: HEK293 cells stably expressing hERG channels, read-out: IC50 on hERG current. In general terms: Block of hERG is tested as a sign of cardiac risk.
Protocol: A whole cell sheet technology was used to detect the blocking effects of compounds on hERG channels on HEK293 cells stably expressing hERG channels, and a median inhibitory concentration IC50 of the compound was determined. As part of cardiac safety evaluation, its safety in-vitro screening for cardiac toxicity was preliminarily evaluated.
• HEK293 cells stably expressing hEGR ion channels
Electrodes were drawn using PC-10 (Narishige, Japan). The whole cell patch clamp was used for recording, and noise was filtered using one fifth of a sampling frequency. The cells were clamped at −80 mV, then depolarized to 40 mV using square waves lasting for 4 seconds, and then hyperpolarized to −40 mV using square waves lasting for 2 seconds to obtain an hERG tail current. This procedure was repeated every 20 seconds. The hERG tail current was a pure hERG current. A maximum current triggered by the second square wave was detected, after the maximum current was stable, the compounds were tested through perfusion, and after reaction was stable, a blocking intensity was calculated.

The mark [4] stands for this setting: iv, i.v. 5.0 mg/kg, 5% DMSO+10% Solutol+85% Saline.
Setting [5] is: po, p.o. 5.0 mg/kg, 0.5% sodium methylcellulose aqueous solution.
Where [6] appears, read: solvent 0.5% sodium methylcellulose aqueous solution.
The mark [7] stands for this setting: solvent 5% DMSO + 10% Solutol + 85% Saline.

Broadly, the AUC(0-t) is exposure summed from dosing to a finite time, without extrapolation to infinity. A word on the Cmax: it is the peak of the concentration-time curve. Usually Tmax stands for the time at which the peak concentration occurs. Usually half-life stands for the time in which the quantity being followed falls by half. Usually bioavailability stands for the share of a dose that reaches the circulation, judged against a reference dose that is usually intravenous. What is called IC50 is the concentration that inhibits the measured activity by half. Take `CC(C)(O)Cn1ncc2cc(-c3c(C#N)cc(N4CCC(N)CC4)nc3-c3ccc(C#N)c(F)c3)c(F)cc21` [Compound 16, 6-(4-aminopiperid-1-yl)-2-(4-cyano-3-fluorophenyl)-3-(6-fluoro-1-(2-hydroxyl-2-methylpropyl)-1H-indazol-5-yl)isonicotinonitrile]: in data set [1] (setting [4]), the exposure AUC(0-t) stood at 1490 ± 157 ng·h/mL, the highest concentration (Cmax) was 765 ± 181 ng/mL, the time to peak (Tmax) was 0.08 h and the half-life is 5.61 ± 1.29 h. The bioavailability in data set [1] amounted to 46.2%. In addition, in data set [1] (setting [5]), the exposure AUC(0-t) was 693 ± 248 ng·h/mL, the Cmax amounted to 75.2 ± 20.3 ng/mL, the Tmax stood at 4 h and the half-life was 4.73 ± 0.22 h. For the same molecule, in data set [2] (setting [6]), the area under the curve AUC(0-t) worked out at 3220 ± 1510 ng·h/mL, the peak concentration (Cmax) is 895 ± 499 ng/mL, the Tmax stood at 3.33 ± 1.15 h and the half-life was 3.99 ± 0.59 h. In addition, in data set [2] (setting [7]), the AUC(0-t) worked out at 2420 ± 123 ng·h/mL, the Cmax came out at 612 ± 111 ng/mL, the time of peak concentration (Tmax) stood at 2.67 ± 1.15 h and the half-life was 5.52 ± 0.67 h. Also, in data set [3], the concentration for half-maximal inhibition (IC50) was above 10 µM.
For `COc1ccc(-c2c(-c3ccc(C#N)c(F)c3)nc(N3CCC(N)CC3)n(C)c2=O)cc1F` [CC-90011, reference compound], in data set [1] (setting [4]), the exposure AUC(0-t) turned out to be 906 ± 194 ng·h/mL, the Cmax was 895 ± 90.4 ng/mL, the time to peak (Tmax) is 0.08 h and the half-life was 3.32 ± 0.72 h. The bioavailability in data set [1] was 32.1%. In data set [1] (setting [5]), the AUC(0-t) turned out to be 299 ± 178 ng·h/mL, the maximum concentration (Cmax) was found to be 49.2 ± 8.71 ng/mL, the time to peak (Tmax) came to 2.67 ± 1.15 h and the half-life was 4.15 ± 0.7 h. In addition, in data set [2] (setting [6]), the AUC(0-t) amounted to 965 ± 120 ng·h/mL, the Tmax was 3.33 ± 1.15 h and the half-life was 5.01 ± 0.04 h. Moreover, in data set [2] (setting [7]), the AUC(0-t) was 871 ± 270 ng·h/mL, the highest concentration (Cmax) came out at 173 ± 50.9 ng/mL, the Tmax was 1 h and the half-life is 2.44 ± 0.34 h.
